“And” between values parts separate entries of the source, which are not always exact repeats. Equal entries are not always repeated. Marks after values point to notes of the source that are not given here.
How the values were obtained:
L-1 sarcoma cells = details: in vivo; cited from earlier work
[1] = body weight post-implantation and toxic symptoms in the metastasis study; type: in vivo, mice
Protocol: (§1) In the vehicle control group, the distilled water was administrated at 10 ml/Kg IP for three consecutive weeks. The body weight for all mice was recorded at day 1, day 8, day 15, and day 22 following tumor cell implantation. The lungs were excised and fixed 21 days after tumor inoculation. Metastatic nodules on the lung surface were then counted under a dissecting microscope. The student's t test was used to determine the statistical difference between the groups of treatment and vehicle control groups in a statistic analysis.

[2] = test system: B16-F0 murine melanoma cells; experiment: in vivo metastasis test, syngeneic tumor metastasis model of melanoma B16-F0 cells in C57BL/6J mice; details: for % Inhibition: vs vehicle control
Protocol: An in vivo metastasis test was performed, wherein groups of 6 (positive control), 6 (Morinda citrifolia-PPT test group), and 9 (vehicle control) immunocompetent (6-8 weeks old), pathogen-free (SPF) C57BL/6 male mice were used in this study and bred in animal isolator (IVC racks) under specific pathogens free (SPF) condition at 23±1° C. Viable B16F0 murine melanoma cells (ATCC CRL-6322, 6×10^4 in 0.2 mL) were inoculated into experimental mice intravenously, via tail vein. Mice were administered the Morinda citrifolia-PPT, 1% in drinking water ad libitum, for one week prior to tumor cell implantation and three weeks afterwards. Additionally, 0.8 mg Morinda citrifolia-PPT/mouse was injected intraperitoneally (IP) for 21 consecutive days following tumor cell implantation. Concurrently, the reference agent, mitomycin, was administrated IP at 1 mg/Kg twice per week for six doses after tumor cell implantation.
as §1
Relating to the Table 1 above, viable B16-F0 murine melanoma cells were inoculated into C57B1/6J mice. Mice were administered ad libitum 1% Morinda citrifolia-PPT one week prior to the implantation and throughout the experiment. […] distilled water (vehicle control), 0.8 mg/m and 4 mg/mouse of Morinda citrifolia-PPT were injected I.P. into mice for 21 consecutive days following the inoculation. Mitomycin was used as a positive control and injected twice a week at 1 mg/Kg for a total of six doses. The lungs were excised and fixed at the end of experiment and the metastasis nodules on the lung surface were counted under a dissecting microscope. The test was used to determine the significant difference between the groups of treatment and vehicle control. (SEM=standard error of mean; ^b p<0.006; ^c p<0.005.)
In the syngeneic tumor metastasis model of melanoma B16-F0 cells in C57BL/6J mice, MDA-4 was administered at 1% (10 mg/ml) by a drinking method for one week for pre-treatment, and for three weeks after the tumor cells were implanted, during the study and throughout the experiment for a total of 28 treatments. Additionally, MDA-4 at a dose of 0.8 mg/mouse was administered intraperitoneally (IP) daily for a total of 21 consecutive days after tumor cells were implanted in the mice.
During the experiment, the test substance MDA-4 was provided by Morinda, Inc. and used for in vivo anti-metastasis studies. MDA-4 was dissolved in sterile distilled water and, as stated, administrated with 1% (10 mg/ml) drinking method for one week pre-treatment, and three week after tumor cells were implanted during the study throughout the experiment for a total of 28 treatments. Additionally, as stated, MDA-4 at dose of 0.8 mg/mouse was administrated intraperitoneally (IP) daily for a total of 21 consecutive days after tumor cells implanted.
The murine melanoma cell line, B16-F0 (ATCC CRL-6322), was purchased from American Type Culture Collection and Dulbecco's Modified Eale's medium, 90% with Fetal Bovine Serum, 10% was used as culture medium. The tumor cells were incubated in an atmosphere containing 5% CO2 at 37° C. The medium was supplemented with 1% Antibiotic-Antimycotic.
Specific pathogen-free male C57BL/6J mice at 6-8 weeks of age, weighing 24-28 gms were provided by National Taiwan University Animal Center. The animals were housed in Individually Ventilated Cages Racks (IVC Racks, 36 Mini Isolator System) under Specific Pathogen-Free (SPF) conditions throughout the experiment. […]

[3] = test system: NRK 2 cells, fibronectin-coated well; experiment: adhesion of NRK 2 cells to a fibronectin-coated well; type: cell-based, rat
Protocol: One assay measured the adhesion of NRK 2 (normal rat kidney cell, ATCC CRL-6509) cells to a fibronectin-coated well. Morinda citrifolia-PPT, the 0.1 N NaCl Morinda citrifolia-PPT fraction, GRGDSP peptide (SIGMA), and 0.4% DMSO (SIGMA, vehicle control) in modified MEM-HEPES buffer pH 7.4 (Hyclone) were incubated in separate wells for 30 minutes at 37° C. The reaction was initiated by addition of NRK 2 cells (2×10^6/ml) and run for 30 minutes. Each well was then washed 6 times with Dulbecco's PBS (Hyclone) followed by addition of 5 μM calcein AM (SIGMA) and a further 2 hour incubation period. Quantitation of fluorescent intensity, resulting from interaction of calcein AM with cells attached to the fibronectin coated plate, was read by a SpectrFluor Plus plate reader (AG Flwith excitation at 485 nm and emission at 535 nm.
Relating to Table 3, NRK 2 cells were used to adhere to fibronectin-coated wells. Quantitation of fluorescent intensity resulting from interaction of calcein AM with cells attached to the fibronectin coated plate was read by a SpectrFluor Plus plate reader.

Lu-ECAM-1 = details: among a series of carbohydrates; cited from earlier work
[4] = individual mouse, R = diameter of nodule

For O=C[C@H](O)[C@@H](O)[C@@H](O)[C@H](O)CO [D-galactose], the “inhibition of liver metastasis” value (L-1 sarcoma cells) is given as “inhibit”.

In the case of arabinogalctose, the “inhibition of liver metastasis” value (L-1 sarcoma cells) is listed as “inhibit”.

With CO[C@@]12[C@H](COC(N)=O)C3=C(C(=O)C(C)=C(N)C3=O)N1C[C@@H]1N[C@@H]12 [Mitomycin] the “Body Weight of Post-Implantation, Day 1, Mean ± SEM” value ([1]; group mean) was 27.7 ± 0.9 g, the “Body Weight of Post-Implantation, Day 8, Mean ± SEM” value ([1]; group mean) was 28.0 ± 0.6 g and the “Body Weight of Post-Implantation, Day 15, Mean ± SEM” value ([1]; group mean) was 27.3 ± 0.9 g. For the same compound, the “Body Weight of Post-Implantation, Day 22, Mean ± SEM” value ([1]; group mean) was 27.3 ± 0.9 g, the “body weight change compared to the vehicle control group” value ([1]; in words) was “no body weight increase” and the “Body Weight of Post-Implantation, Day 1” value ([1]; individual mouse) was 28 g and 29 g and 26 g. For the same compound, the “Body Weight of Post-Implantation, Day 8” value ([1]; individual mouse) was 28 g and 29 g and 27 g, the “Body Weight of Post-Implantation, Day 15” value ([1]; individual mouse) was 27 g and 29 g and 26 g and the “Body Weight of Post-Implantation, Day 22” value ([1]; individual mouse) was 27 g and 29 g and 26 g. For the same compound, the metastasis inhibition ([2]; PPT at 0.8 mg/mouse combined with free drinking, mitomycin at 1 mg/Kg) was 55%, the “% Inhibition” value ([2]; Table 1, PPT 0.8 mg/mouse, mitomycin 1 mg/Kg) was 60%^c and the “No. of Metastastic Nodules in the Lung” value ([2]; Table 4, mean ± SEM, MDA-4 drinking 1% x28 & IP 0.8 mg/mouse x21, mitomycin IP 1 mg/kg x6) was 22 ± 2. For the same compound, the “% Inh.” value ([2]; Table 4, vs vehicle, MDA-4 drinking 1% x28 & IP 0.8 mg/mouse x21, mitomycin IP 1 mg/kg x6) was 55%, the “No. of Metastastic Nodules in the Lung, Total Nodules, X ± SEM” value ([2]; Table 5, group mean) was 22 ± 2 and the “No. of Metastastic Nodules in the Lung, Total Nodules” value ([2]; Table 5, individual mouse) was 23 and 24 and 19. For the same compound, the “% Inhibition” value ([2]; Table 5, MDA-4 drinking 1% x28 & IP 0.8 mg/mouse x21, mitomycin IP 1 mg/kg x6) was 55%, the “No. of Metastastic Nodules in the Lung, 1 mm<” value [2, 4] was 6 and 7 and 4 and the “No. of Metastastic Nodules in the Lung, R < 1 mm” value [2, 4] was 16 and 17 and 15. For the same compound, the “No. of Metastastic Nodules in the Lung, R > 2 mm” value [2, 4] was 1 and 0 (2×) and the “No. of Metastasis Nodules in the Lung” value ([2]; individual mouse, lungs excised 21 days after inoculation, PPT 0.8 mg/mouse IP x21 + 1% in drinking water, mitomycin 1 mg/Kg IP x6) was 23 and 24 and 19.

In the case of GRGDSP peptide, the “Percentage adhesion inhibition, fibronectin mediated” value (“Percentage adhesion inhibition” below) ([3]; Conc. 31.25 μg/ml) is reported as 16, the “Percentage adhesion inhibition” value ([3]; Conc. 62.5 μg/ml) is reported as 22 and the “Percentage adhesion inhibition” value ([3]; Conc. 125 μg/ml) is reported as 43. The “Percentage adhesion inhibition” value ([3]; Conc. 250 μg/ml) was 78 and the “Percentage adhesion inhibition” value ([3]; Conc. 500 μg/ml) was 98.

In the case of CC(=O)NC1C(OC2C(O)C(CO)OC(OC3C(CO)OC(O)C(O)C3O)C2O)OC(CO)C(O)C1OC1OC(CO)C(O)C(O)C1OC1OC(C)C(O)C(O)C1O (stereo not shown) [Lacto-N-fucopentose I], the “blocking of adhesion of B16-F10 to Lu-ECAM-1” value (Lu-ECAM-1) is listed as “most effectively blocked adhesion”.
